Experimental data reported in US20090069324A1, “CHEMICAL INHIBITORS OF BFL-1 AND RELATED METHODS” (The Burnham Institute, priority 2007, published 2009).
Several values for one entry are separate records, joined by “and”; a condition that tells them apart may be missing. Identical values can stand only once. Entries after “also recorded” stand apart in the source; their conditions may differ.

Legend:
[1] = system: RS11846 B-lymphoma cell line; assay: Induction of apoptosis, Annexin-FITC/PI flow cytometry; type: cell-based, human; settings: 16 hours incubation
From the text: To test compounds for their ability to induce apoptosis in cancer cells, the RS11846 B-lymphoma cell line was used. The RS11846 cell line was established from a patient with an aggressive form of diffuse large cell lymphoma, representing a subset of B-lymphoma in humans. This type of human B-lymphoma is characterized by infiltration beyond lymphoid compartment (bone marrow, spleen, lymph nodes, liver and etc.), typically infiltrate into ovary (in female), testis (in male), spinal cord and CNS (central nervous system) therefore given nomenclature of “diffuse.” Histo-pathologically, the RS11846 cell line is diffuse large cell B-lymphoma, thus representing an immature, aggressive form of the disease. […] Therefore, this cell line is suitable for examining biological effects of Bfl-1 antagonists concerned in this patent application.
For the assay to test compounds for their ability to induce apoptosis, the RS11846 B-lymphoma cell line was cultured in RPMI-1640 supplemented by 10% FBS and Penicillin/Streptomycin. The cells were seeded at cell density of half a million cells per ml, and incubation time was 16 hours. In the assay, cell viability was analyzed by the Annexin-FITC/PI method, using flow cytometry, or FACS analysis. Viable cells were defined by Annexin-FITC-negative, PI-negative. Compensation was done using conventional methods and using the Flo-jo program.
IC50 (50% killing) was determined using an extrapolation method based on the finding that biological response is almost linear near at 50% inhibition point when plotted against semi-log scale on X-axis. See, D. J. Finney, Statistical Method in Biological Assay, Griffin, London, 1978. Briefly, % viability was plotted on Y-axis on an ordinary scale, while drug concentration was plotted on X-axis on a semi-log scale. The actual 50% inhibition point is on the line between left-bracket (higher than 50% inhibition) and right bracket (lower than 50% inhibition), and it can be extrapolated on the line on a semi-log scale. Thus, IC50 was extrapolated via left bracketing and right bracketing, and extrapolated on a semi-log scale, and then, re-converted back to an ordinary scale.

[2] = system: anti-apoptotic members of the Bcl-2-family; assay: FPA competition assay, GST-Bcl-2 fusion proteins with FITC-Bid BH3 peptide in PBS; type: binding, human; settings: 100 nM GST-fusion proteins, 5 nM FITC-Bid BH3 peptide
Experimental: Bcl-2-binding compounds were tested by competition assay analysis. The green tea compound […] (EGCG) has been reported to bind Bcl-2 and Bcl-XL (Leone et al., Cancer Res 63:8118-8121 (2003)). The ability of EGCG to compete with fluorochrome-labeled BH3 peptides was confirmed by FPA. 100 nM of GST-Bcl-2 fusion proteins were incubated with various concentrations of EGCG or control compound ECG (“C”) for 2 min in PBS buffer in 50 uL. Next, 5 nM FITC-conjugated-Bid BH3 peptide was added, bringing final volume to 100 uL and final DMSO concentration to 1%. Fluorescence polarization was measured after 20 min. […] This compound therefore can serve as a positive control when performing high throughput screens of a chemical library.

Bfl-1 [3] = target: T1, Bfl-1 (Homo sapiens, UniProt Q16548); assay: Bfl-1 fluorescence polarization assay (FPA/FP), competition with FITC-Bid BH3 peptide; type: binding
T1 construct: lacking their C-terminal transmembrane domains (approximately last 20 amino-acids); made in house; host or cells: XL-1 Blue cells (E. coli), pGEX 4T-1
T1 sequence (Q16548 1-155 limits assumed): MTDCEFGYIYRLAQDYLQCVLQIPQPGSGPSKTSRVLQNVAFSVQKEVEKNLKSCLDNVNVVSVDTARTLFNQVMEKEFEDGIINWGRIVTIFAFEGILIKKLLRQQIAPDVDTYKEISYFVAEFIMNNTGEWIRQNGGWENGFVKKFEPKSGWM
Experimental: Fluorescence polarization assays (FPA). To determine the binding affinity of anti-apoptotic Bcl-2 polypeptides to FITC-conjugated Bid BH3 peptide, fluorescence polarization assays (FPAs) were performed according to published procedures (Zhai et al., Biochem. J. 376:229-236 (2003)). […] Fluorescence polarization was measured after 10 min using an Analyst™ AD Assay Detection System (LJL Biosystem, Sunnyvale, Calif.) in phosphate-buffered saline (PBS) (pH 7.4). The IC50 determinations were performed using GraphPad Prism software (GraphPad, Inc., San Diego, Calif.).
Competition assays. Using the same procedure outlined above, 100 nM of GST-Bfl-1 protein were incubated with the compounds at 50 μM concentration for 30 min. Then, 5 nM of FITC-Bid BH3 peptide was added. Fluorescence polarization was measured after 10 min. […]

Bfl-1 [4] = target: T1, Bfl-1; assay: Bfl-1 TR-FRET assay (FITC-Bid, Tb-anti-GST antibody); type: binding
Experimental: TR-FRET assay. For confirmation of FPA results, a TR-FRET assay utilizing terbium- (Tb-) labeled anti-GST antibody (Th-Ab) was developed. […] The reaction mixture was preincubated for 1 h, and TR-fluorescence (TRF) was measured on an M5 plate reader (Molecular Devices) using excitation at 340 nm and emission at […]. The measurements were averaged from 5 readings during 1 ms after an initial delay 0.1 ms. TR-FRET signal was calculated as the ratio of TR-Fluorescence at 520 nm to TR-Fluorescence at […].
For Bfl-1 TR-FRET assays, Bfl-1 protein and FITC-Bid peptide (FITC-Ahx-[…]) (SEQ ID NO: 1) were utilized. Terbium-anti-GST antibody (Tb-anti-GST Ab) was obtained from Invitrogen (San Diego Calif.). The assay buffer contained 25 mM Bis-Tris, pH 7.0, 1 mM TCEP, and 0.005% Tween 20. The Tb-Ab buffer contained 2.5 nM Tb-anti-GST antibody in assay buffer. The Bfl-1/Th-Ab working solution contained 5 nM Bfl-1 in Th-Ab assay buffer. The solution was prepared fresh and kept on ice prior to use. The FITC-Bid working solution contained 5.6 nM FITC-Bid in assay buffer.
For the Bfl-1 TR-FRET dose-response screening protocol, dose-response curves contained 10 concentrations of compounds obtained using 2-fold serial dilution. Compounds were serially diluted in 100% DMSO, and then diluted with water to 10% final DMSO concentration. A 4 μl aliquot of compounds in 10% DMSO was transferred into columns 3-22 of Greiner 384-well white small-volume plates. Columns 1-2 and 23-24 contained 4 μL of 10% DMSO.
Columns 1-2 were reserved for positive controls, and 8 μL of Th-Ab buffer was added using a WellMate bulk dispenser (Matrix). An aliquot of 8 μL of Bfl-1/Th-Ab working solution was added to columns 3-24 of Greiner 384 well white plates using a WellMate bulk dispenser (Matrix). Columns 23-24 represented negative control wells. Plates were incubated for 1 h at 4° C. An 8 μL aliquot of freshly prepared FITC-Bid working solution was added to the whole plate using WellMate bulk dispenser (Matrix). Plates were incubated for 4 h at room temperature protected from direct light. Fluorescence was measured on the M5 plate reader (excitation: 340 nm, emission: 490 and 520 nm, cutoff: 475 and 515 nm, respectively) in Time Resolved (TR) mode with signal integrated for 1 ms after initial delay of 0.1 ms. TR-FRET signal was calculated as the ratio of TR-Fluorescence at 520 nm to TR-Fluorescence at 490 nm. Data analysis was performed using a sigmoidal dose-response equation through non-linear regression.

Solubility = assay: Solubility
Experimental: Compounds were screened for inhibitory activity of Bfl-1 essentially as described in Example 1, and including a 1 h incubation of Bfl-1 in the presence of compounds and a 4 h incubation after the subsequent addition of the fluorescent probe. […] The assay was screened against the entire NIH small molecule library, which at the time consisted of 65,000 compounds. […] Controls included an “artifact” plate on which a GAPDH assay was performed to check selectivity, and a solubility plate on which a solubility assay was performed to test solubility.

Bcl-2 = target: T2, Bcl-2 (Homo sapiens, UniProt P10415); assay: Bcl-2/FITC-Bim FPA selectivity assay; type: binding
T2 construct: lacking their C-terminal transmembrane domains (approximately last 20 amino-acids); GST (N); made in house; host or cells: XL-1 Blue cells (E. coli), pGEX 4T-1
From the text: (§1) This example illustrates assays for determining the selectivity of chemical inhibitors for Bfl-1. Bfl-1, as with other Bcl-2 family proteins, participates in a very complex and intricate network of interactions with other representatives of the family. Therefore, two selectivity assays involving family members Bcl-2 and Bcl-B were developed.
(§2) For Bcl-2, a FITC-conjugated peptide corresponding to the BH3 domain of Bim was used. For Bcl-B, a FITC-conjugated peptide corresponding to a fragment of the TR3/Nur77 protein shown to bind this member of the Bcl-2 family was used.
(§3) Probe specificity for target or for cell-based/phenotypic assays data can be determined in orthogonal cell-based assay systems that address the pathway of interest. For example, compounds were tested in Bfl-1/FITC-Bid FPA and TR-FRET assays (FIGS. 7A and 7B, respectively), as well as Bcl-2/FITC-Bim FPA (FIG. 7C) and Bcl-B/FITC-TR3-R8 FPA (FIG. 7D) assays. Data represent concentration in μM x-axis) vs % displacement (y-axis).

Bcl-B = target: T3, Bcl-B (Homo sapiens, UniProt Q9HD36); assay: Bcl-B/FITC-TR3-R8 FPA selectivity assay; type: binding
T3 construct: lacking their C-terminal transmembrane domains (approximately last 20 amino-acids); GST (N); made in house; host or cells: XL-1 Blue cells (E. coli), pGEX 4T-1
T3 sequence (Q9HD36 1-182 limits assumed): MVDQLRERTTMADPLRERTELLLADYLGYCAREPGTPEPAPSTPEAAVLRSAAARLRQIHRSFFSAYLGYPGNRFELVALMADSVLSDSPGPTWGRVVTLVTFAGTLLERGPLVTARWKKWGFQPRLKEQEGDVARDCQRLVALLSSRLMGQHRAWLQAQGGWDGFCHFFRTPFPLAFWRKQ
From the text: as §1, §2, §3

[5] = Tables 3-5, read-out: Bfl-1 TR FRET IC50

T2 sequence (P10415 1-218 limits assumed): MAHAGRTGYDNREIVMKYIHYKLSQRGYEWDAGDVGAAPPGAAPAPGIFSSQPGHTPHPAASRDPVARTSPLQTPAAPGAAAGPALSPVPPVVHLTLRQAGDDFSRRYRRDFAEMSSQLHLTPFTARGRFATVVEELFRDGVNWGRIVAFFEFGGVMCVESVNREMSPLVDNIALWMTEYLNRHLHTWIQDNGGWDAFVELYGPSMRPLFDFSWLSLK

CCOC(=O)CS(=O)(=O)c1nc(-c2ccc(F)cc2)cc(C(F)(F)F)n1 [Compound 9]
induction of apoptosis [1]: induction of apoptosis

O=C(O[C@@H]1Cc2c(O)cc(O)cc2O[C@@H]1c1cc(O)c(O)c(O)c1)c1cc(O)c(O)c(O)c1 [ECGC, epigallecatechin]
binding to anti-apoptotic Bcl-2-family members [2]: binds to all six anti-apoptotic members of the Bcl-2-family

O=C1C(Cl)=C(N2CCN(CCOCCO)CC2)C(=O)N1c1ccc(Cl)c(Cl)c1 [MLS-0090861]
IC50 (Bfl-1 [3]; text b268, assay not stated (equals FP value of Table 5), read-out: IC50): 470 nM | IC50 (Bfl-1 [4]; [5]): 0.42 µM | aqueous solubility compared with CID-1180676 (Solubility): enhanced aqueous solubility

CCOC(=O)CS(=O)(=O)c1nc(-c2ccccc2)cc(C(F)(F)F)n1 [Compound 3]
induction of apoptosis [1]: induction of apoptosis

CN1CCN(C2=C(Cl)C(=O)N(c3ccc(Cl)c(Cl)c3)C2=O)CC1 [CID-1180676, 3-chloro-1-(3,4-dichlorophenyl)-4-(4-methylpiperazin-1-yl)pyrrole-2,5-dione]
Bfl-1 FP assay, activity in words (Bfl-1 [3]; Bfl-1/FITC-Bid): submicromolar potency; also recorded: potently disrupt | IC50 (Bfl-1 [3]; Tables 3-5, read-out: Bfl-1 FP IC50): 750 nM | IC50 (Bfl-1 [3]; Tables 7-8, Avg where the cell lists several determinations, read-out: Bfl-1 FPA IC50): 617 nM | Bfl-1 TR-FRET assay, activity in words (Bfl-1 [4]; Bfl-1/FITC-Bid): submicromolar potency; also recorded: potently disrupt | IC50 (Bfl-1 [4]; [5]): 0.56 µM | IC50 (Bfl-1 [4]; Tables 7-8, Avg where the cell lists several determinations, read-out: Bfl-1 TR-FRET IC50): 0.479 µM | Bfl-1 TR-FRET IC50 (uM), individual determinations (Bfl-1 [4]; Tables 7-8, single values listed before the Avg): nofit | IC50 (Bfl-1 [4]; Tables 7-8, single values listed before the Avg, read-out: Bfl-1 TR-FRET IC50 (uM), individual determinations): 0.304 µM and 0.443 µM and 0.317 µM and 0.471 µM and 0.445 µM and 1.09 µM and 0.475 µM and 0.584 µM and 0.186 µM | Competition for binding of a BH3 peptide to Bcl-2, in words (Bcl-2; Bcl-2/FITC-Bim complex): limited activity | Effect on complex of Bcl-B/FITC-TR3-R8, in words (Bcl-B): did not affect

COc1ccc(-c2cc(N)n(S(=O)(=O)c3c(F)c(F)c(F)c(F)c3F)n2)cc1OC [Compound 10]
induction of apoptosis [1]: induction of apoptosis

COc1ccc(-c2cc(C(F)(F)F)nc(S(C)(=O)=O)n2)cc1OC [Compound 11]
induction of apoptosis [1]: induction of apoptosis

CC(C)C(C(=O)O)N1C(=O)/C(=C/c2ccc(Br)cc2)SC1=S (stereo not shown) [BH3I-1, (Z)-2-(5-(4-Bromobenzylidene)-4-oxo-2-thioxothiazolidin-3-yl)-3-methylbutanoic acid, reference compound]
IC50 (Bfl-1 [3]; conditions not stated, not the assay with 0.005% Tween 20, read-out: Bfl-1 (FP): IC50): 4650 nM | IC50 (Bfl-1 [3]; in the presence of 0.005% Tween 20, read-out: IC50 in Bfl-1 FP assay): > 20000 nM | IC50 (Bcl-2; read-out: Bcl-2 (FP): IC50): 1140 nM | IC50 (Bcl-B; read-out: Bcl-B (FP): IC50): 1080 nM
